US20240239792A1, “MODULATORS OF BCL-2 OR BCL-2/BCL-XL AND USES THEREOF” (APPICINE THERAPEUTICS (HK) LIMITED, priority 2021, published 2024)

Legend:
[1] = molecular target: T1, CYP2C9 (Homo sapiens, UniProt P11712); experiment: CYP2C9 activity assay in human liver microsomes, substrate diclofenac; type: in vitro ADME; settings: probe diclofenac, test compound 1 μM, 37° C. 10 min, read-out: Inhibition rate (%) against CYP2C9 Enzyme
T1 construct: from tissue; host or cells: human liver microsomes
Description: In this assay, several exemplary compounds of the present disclosure and a control compound (Venetoclax) were used as the test compounds. In general, the assay was conducted by the following steps: • 1. The solution of test compound, human liver microsomes solution, and substrate (diclofenac) solution were mixed in a 96-well assay plate on ice to, and the final concentration of each test compound is 1 μM; • 2. The 96-well assay plate and NADPH solution were pre-incubated at 37° C. for 5 minutes; • 3. NADPH solution was added to into the assay plates to initiate the reaction; • 4. The assay plate was incubated at 37° C. for 10 min; • 5. The reaction was stopped; and after quenching, a portion of the supernatant was taken from each well for LC/MS analysis; • 6. The inhibition rate was calculated by the following equation: Inhibition rate (%)=(1−Valuetest/Valuecontrol)×100%, where Valuetest refers to the LC/MS data obtained from wells with test compounds and Valuecontrol refers to the LC/MS data obtained from wells without test compound.

[2] = molecular target: T2, BCL-2 (Homo sapiens, UniProt P10415); experiment: HTRF BCL-2/BAK assay (Cisbio); type: binding; settings: recombinant human Tag1-BCL-2 2 nM, Tag2-BAK 10 nM
T2 construct: purchased Cisbio 63ADK000CB01PEG
Description: (§1) Then the pre-mixed anti-Tag1-Eu^3+ and anti-tag2-XL665 were added to the plate and further incubated at room temperature for another 2 hours. The signals ([…]) were read on Envision 2104 instrument. The IC50 for each compound was derived from fitting the signal of 665/615 nM to the increasing compound concentration.
(§2) Using the above assays, the following compounds were tested.

[3] = molecular target: T3, BCL-XL (Homo sapiens, UniProt Q07817); experiment: HTRF BCL-XL/BAK assay (Cisbio); type: binding; settings: recombinant human Tag1-BCL-XL 2 nM, Tag2-BAK 5 nM
T3 construct: purchased Cisbio 63ADK000CB04PEG
Description: as §1, §2

[4] = system: DOHH2 cells; experiment: CellTiter-Glo cell proliferation assay, DOHH2 cells; type: cell-based; settings: Homo sapiens, DOHH-2, 72 hours
Procedure, shortened: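 DOHH2 cells seeded in DMEM + 10% FBS, exposed to serially diluted compound for 72 h at 37 °C, 5% CO2. Viability read by CellTiter-Glo luminescence; GI50 calculated.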

T2 sequence (P10415 whole entry): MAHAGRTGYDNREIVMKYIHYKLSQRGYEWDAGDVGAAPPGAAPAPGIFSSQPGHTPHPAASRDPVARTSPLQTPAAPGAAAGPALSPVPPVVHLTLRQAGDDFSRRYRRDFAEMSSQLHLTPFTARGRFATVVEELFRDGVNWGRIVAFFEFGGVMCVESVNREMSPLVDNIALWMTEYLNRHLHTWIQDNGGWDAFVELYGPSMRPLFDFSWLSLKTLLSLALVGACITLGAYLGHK
T1 sequence (P11712 whole entry): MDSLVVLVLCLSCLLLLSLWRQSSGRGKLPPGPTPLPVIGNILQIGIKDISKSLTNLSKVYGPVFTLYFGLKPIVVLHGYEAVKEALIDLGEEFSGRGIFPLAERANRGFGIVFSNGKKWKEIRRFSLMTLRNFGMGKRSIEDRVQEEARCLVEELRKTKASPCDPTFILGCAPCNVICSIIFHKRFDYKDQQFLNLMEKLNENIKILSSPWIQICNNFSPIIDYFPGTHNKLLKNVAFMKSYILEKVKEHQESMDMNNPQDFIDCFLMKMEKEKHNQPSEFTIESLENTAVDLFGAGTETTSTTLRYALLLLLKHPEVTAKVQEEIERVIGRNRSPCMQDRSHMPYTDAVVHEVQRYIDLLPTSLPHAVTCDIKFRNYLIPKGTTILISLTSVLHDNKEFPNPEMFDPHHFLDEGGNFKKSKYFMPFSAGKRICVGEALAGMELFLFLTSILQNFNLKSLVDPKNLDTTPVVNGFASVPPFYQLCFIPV
T3 sequence (Q07817 whole entry): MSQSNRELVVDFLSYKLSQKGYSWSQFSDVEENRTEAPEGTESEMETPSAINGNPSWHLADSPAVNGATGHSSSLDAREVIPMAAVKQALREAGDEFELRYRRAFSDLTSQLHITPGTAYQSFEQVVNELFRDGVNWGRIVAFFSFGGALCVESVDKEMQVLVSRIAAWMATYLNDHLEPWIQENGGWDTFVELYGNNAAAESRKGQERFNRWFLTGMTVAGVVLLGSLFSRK

IC50 [2]	IC50 [3]	Structure (SMILES)	inhibition at 10 min, 1 µM [1]	GI50 [4]
20 to 200 nM	> 2000 nM	O=C(NS(=O)(=O)c1ccc(NCC2CCOCC2)c([N+](=O)[O-])c1)c1ccc(N2CCN([C@@H]3CCCCc4c(O)cccc43)CC2)cc1Oc1cnc2[nH]ccc2c1 [Compound 40, (R)-2-((1H-pyrrolo[2,3-b]pyridin-5-yl)oxy)-4-(4-(1-hydroxy-6,7,8,9-tetrahydro-5H-benzo[7]annulen-5-yl)piperazin-1-yl)-N-((3-nitro-4-(((tetrahydro-2H-pyran-4-yl)methyl)amino)phenyl)sulfonyl)benzamide]	–	500 to 5000 nM
< 20 nM	200 to 2000 nM	O=C(NS(=O)(=O)c1ccc(NCC2CCOCC2)c([N+](=O)[O-])c1)c1ccc(N2CCN([C@@H]3CCCCc4c(Br)cc(F)cc43)CC2)cc1Oc1cnc2[nH]ccc2c1 [Compound 78, (R)-2-((1H-pyrrolo[2,3-b]pyridin-5-yl)oxy)-4-(4-(1-bromo-3-fluoro-6,7,8,9-tetrahydro-5H-benzo[7]annulen-5-yl)piperazin-1-yl)-N-((3-nitro-4-(((tetrahydro-2H-pyran-4-yl)methyl)amino)phenyl)sulfonyl)benzamide]	–	50 to 500 nM
20 to 200 nM	> 2000 nM	O=C(NS(=O)(=O)c1ccc(NCC2CCOCC2)c([N+](=O)[O-])c1)c1ccc(N2CCN(C3CCCCc4c(-c5cn[nH]c5)cccc43)CC2)cc1Oc1cnc2[nH]ccc2c1 (stereo not drawn) [Compound 52, 4-(4-(1-(1H-pyrazol-4-yl)-6,7,8,9-tetrahydro-5H-benzo[7]annulen-5-yl)piperazin-1-yl)-2-((1H-pyrrolo[2,3-b]pyridin-5-yl)oxy)-N-((3-nitro-4-(((tetrahydro-2H-pyran-4-yl)methyl)amino)phenyl)sulfonyl)benzamide]	–	> 5000 nM
< 20 nM	20 to 200 nM	CCOC(=O)CN1CCC2(CC1)CC(CNc1ccc(S(=O)(=O)NC(=O)c3ccc(N4CCN([C@@H]5CCCCc6c(Cl)cccc65)CC4)cc3Oc3cnc4[nH]ccc4c3)cc1[N+](=O)[O-])C2 [Compound 122, ethyl (R)-2-(2-(((4-(N-(2-((1H-pyrrolo[2,3-b]pyridin-5-yl)oxy)-4-(4-(1-chloro-6,7,8,9-tetrahydro-5H-benzo[7]annulen-5-yl)piperazin-1-yl)benzoyl)sulfamoyl)-2-nitrophenyl)amino)methyl)-7-azaspiro[3.5]nonan-7-yl)acetate]	–	< 50 nM

More lines, now with the values behind:

Structure (SMILES)	IC50 [2]	IC50 [3]	inhibition at 10 min, 1 µM [1]	GI50 [4]
CC1(C)CCC(CN2CCN(c3ccc(C(=O)NS(=O)(=O)c4ccc(NCC5CCOCC5)c([N+](=O)[O-])c4)c(Oc4cnc5[nH]ccc5c4)c3)CC2)=C(c2ccc(Cl)cc2)C1 [Venetoclax, reference compound]	–	–	49%	–
O=C(NS(=O)(=O)c1ccc(NCC2CC3(CCN(CC(F)(F)F)CC3)C2)c([N+](=O)[O-])c1)c1ccc(N2CCN([C@@H]3CCCCc4c(Cl)cccc43)CC2)cc1Oc1cnc2[nH]ccc2c1 [Compound 115, (R)-2-((1H-pyrrolo[2,3-b]pyridin-5-yl)oxy)-4-(4-(1-chloro-6,7,8,9-tetrahydro-5H-benzo[7]annulen-5-yl)piperazin-1-yl)-N-((3-nitro-4-(((7-(2,2,2-trifluoroethyl)-7-azaspiro[3.5]nonan-2-yl)methyl)amino)phenyl)sulfonyl)benzamide]	< 20 nM	200 to 2000 nM	< 30%	50 to 500 nM
CC(C)(C)OC(=O)N1CCC2(CC1)CC(CNc1ccc(S(=O)(=O)NC(=O)c3ccc(N4CCN([C@@H]5CCCCc6c(Cl)cccc65)CC4)cc3Oc3cnc4[nH]ccc4c3)cc1[N+](=O)[O-])C2 [Compound 100, tert-butyl (R)-2-(((4-(N-(2-((1H-pyrrolo[2,3-b]pyridin-5-yl)oxy)-4-(4-(1-chloro-6,7,8,9-tetrahydro-5H-benzo[7]annulen-5-yl)piperazin-1-yl)benzoyl)sulfamoyl)-2-nitrophenyl)amino)methyl)-7-azaspiro[3.5]nonane-7-carboxylate]	< 20 nM	200 to 2000 nM	< 30%	50 to 500 nM
O=C(NS(=O)(=O)c1ccc(NCC2CCOCC2)c([N+](=O)[O-])c1)c1ccc(N2CCC3(CC2)CN(C2CCCc4ccccc42)C3)cc1Oc1cnc2[nH]ccc2c1 (stereo not drawn) [Compound 94, 2-((1H-pyrrolo[2,3-b]pyridin-5-yl)oxy)-N-((3-nitro-4-(((tetrahydro-2H-pyran-4-yl)methyl)amino)phenyl)sulfonyl)-4-(2-(1,2,3,4-tetrahydronaphthalen-1-yl)-2,7-diazaspiro[3.5]nonan-7-yl)benzamide]	< 20 nM	–	< 30%	500 to 5000 nM
O=C(NS(=O)(=O)c1ccc(NCC2CCC3(CC2)COC3)c([N+](=O)[O-])c1)c1ccc(N2CCN([C@@H]3CCCCc4c(Cl)cccc43)CC2)cc1Oc1cnc2[nH]ccc2c1 [Compound 71, (R)-2-((1H-pyrrolo[2,3-b]pyridin-5-yl)oxy)-N-((4-(((2-oxaspiro[3.5]nonan-7-yl)methyl)amino)-3-nitrophenyl)sulfonyl)-4-(4-(1-chloro-6,7,8,9-tetrahydro-5H-benzo[7]annulen-5-yl)piperazin-1-yl)benzamide]	< 20 nM	20 to 200 nM	–	< 50 nM
O=C(NS(=O)(=O)c1ccc(NCC2CCOCC2)c([N+](=O)[O-])c1)c1ccc(N2CCN([C@@H]3CCCCc4c(Cl)cc(F)cc43)CC2)cc1Oc1cnc2[nH]ccc2c1 [Compound 87, (R)-2-((1H-pyrrolo[2,3-b]pyridin-5-yl)oxy)-4-(4-(1-chloro-3-fluoro-6,7,8,9-tetrahydro-5H-benzo[7]annulen-5-yl)piperazin-1-yl)-N-((3-nitro-4-(((tetrahydro-2H-pyran-4-yl)methyl)amino)phenyl)sulfonyl)benzamide]	< 20 nM	20 to 200 nM	–	< 50 nM
O=C(NS(=O)(=O)c1ccc(NC[C@@H]2CO[C@@H]3OCC[C@H]23)c([N+](=O)[O-])c1)c1ccc(N2CCN([C@@H]3CCCCc4c(Br)cc(F)cc43)CC2)cc1Oc1cnc2[nH]ccc2c1 (relative stereo) [Compound 81, 2-((1H-pyrrolo[2,3-b]pyridin-5-yl)oxy)-4-(4-((R)-1-bromo-3-fluoro-6,7,8,9-tetrahydro-5H-benzo[7]annulen-5-yl)piperazin-1-yl)-N-((4-((((3R,3aR,6aS)-hexahydrofuro[2,3-b]furan-3-yl)methyl)amino)-3-nitrophenyl)sulfonyl)benzamide]	20 to 200 nM	200 to 2000 nM	–	500 to 5000 nM
O=C(NS(=O)(=O)c1ccc(NCC2CCOCC2)c([N+](=O)[O-])c1)c1ccc(N2CCN(C3CCCCc4c(-c5ccn[nH]5)cccc43)CC2)cc1Oc1cnc2[nH]ccc2c1 (stereo not drawn) [Compound 54, 4-(4-(1-(1H-pyrazol-3-yl)-6,7,8,9-tetrahydro-5H-benzo[7]annulen-5-yl)piperazin-1-yl)-2-((1H-pyrrolo[2,3-b]pyridin-5-yl)oxy)-N-((3-nitro-4-(((tetrahydro-2H-pyran-4-yl)methyl)amino)phenyl)sulfonyl)benzamide]	< 20 nM	> 2000 nM	–	500 to 5000 nM
CN1CCC(CNc2ccc(S(=O)(=O)NC(=O)c3ccc(N4CCN([C@@H]5CCCCc6c(Br)cccc65)CC4)cc3Oc3cnc4[nH]ccc4c3)cc2[N+](=O)[O-])CC1 [Compound 69, (R)-2-((1H-pyrrolo[2,3-b]pyridin-5-yl)oxy)-4-(4-(1-bromo-6,7,8,9-tetrahydro-5H-benzo[7]annulen-5-yl)piperazin-1-yl)-N-((4-(((1-methylpiperidin-4-yl)methyl)amino)-3-nitrophenyl)sulfonyl)benzamide]	< 20 nM	< 20 nM	–	< 50 nM
